Legend:
[1] = target: Human BTK enzyme, wild-type (Homo sapiens (Human), UniProt Q06187); assay: BTK Screening: Btk kinase activity, electrophoretic mobility shift assay (MSA); assay type: biochemical; conditions: 0.5 nM BTK enzyme, 50 μM ATP, 15 minutes pre-incubation, 3 hours at 25° C.
Experimental: Btk kinase activity was measured in vitro using an electrophoretic mobility shift assay (MSA). The ability of Btk to phosphorylate a fluorescent peptide substrate (FAM-GEEPLYWSFPAKKK-NH2) was measured. The kinase reactions were assembled in a total volume of 25 μL per well in 384 well plates. The following was added to each well: compound buffer (or control); enzyme buffer; and substrate buffer, as further described below.
Specifically the following was added: (1) compound buffer or control: 5μL of 5× compound buffer [(5× compound buffer comprised of: 1× Master Buffer, X μM test compound in 5% dimethyl sulfoxide; (2× Master Buffer comprised of 200 mM HEPES, pH7.5, 0.2% BSA, and 0.02% Triton X-100)]; and (2) enzyme buffer: 10 μL of 2.5× enzyme buffer (1× Master Buffer, 12.5 mM MgCl2, 2.5 mM DTT, 25 μM sodium orthovanadate, 25 μM beta-glycerophosphate, and 1.25 nM BTK enzyme). Human BTK enzyme Nanosyn-293HEK, wild-type, available from Nanosyn, Santa Clara, CA). Enzyme and compound were pre-incubated for 15 minutes. Additionally, the following was added: (3) substrate buffer: 10 μL of 2.5× substrate buffer (1× Master Buffer, […], and 2.5 μM of the peptide substrate FAM). Each plate was incubated at 25° C. for 3 hours. The reaction was terminated by adding to each well: 45 μL of 1.55× stop buffer (1× Master Buffer and 31 mM EDTA). The final reaction mixture was as follows: 100 mM HEPES, pH7.5; 0.1% BSA; 0.01% Triton X-100; 1 mM DTT; 5 mM MgCl2; 10 μM sodium orthovanadate; 10 μM beta-glycerophosphate; 50 μM ATP; 1% dimethyl sulfoxide (from compound); 1μM fluorescent peptide substrate and 0.5 nM BTK- enzyme. The terminated reactions were analyzed using a 12 channel LABCHIP® 3000 microfluidic detection instrument (available from Caliper Life Sciences, Waltham, MA). […] As substrate and product peptides were separated, two peaks of fluorescence were observed. Change in the relative fluorescence intensity of the substrate and product peaks was the parameter measured, reflecting enzyme activity. In the presence of an active compound, the ratio between product and substrate was altered. The signal of the product decreased, while the signal of the substrate increased. Capillary electrophoregrams (RDA acquisition files) were analyzed using HTS Well Analyzer software (available from Caliper Life Sciences, Waltham, MA).
Activity in each sample was determined as the product to sum ratio (PSR): P/(S+P), where P was the peak height of the product peptide and S was the peak height of the substrate peptide. For each compound, enzyme activity was measured at various concentrations (12 concentrations of compound spaced by 3× dilution intervals). Negative control samples (0% inhibition in the absence of an active compound) and positive control samples (100% inhibition, in the presence of 20 mM EDTA) were assembled in replicates of four and were used to calculate % inhibition values for each active compound at each concentration. Percent inhibition (Pinh) was determined using following equation: Pinh=(PSR0%−PSRinh)/(PSR0%−PSR100%)*100, where PSRinh was the product sum ratio in the presence of inhibitor, PSR0% was the average product sum ratio in the absence of active compound and PSR100% was the average product sum ratio in 100%-inhibition control samples.
The IC50 values of active compounds were determined by 4 parameter sigmoidal dose response model fitting of the inhibition curves (Pinh versus inhibitor concentration) using XLfit® 4 software (IDBS, Boston, MA). The IC50 values are reported in Table 2 in the BTK IC50 (nM) column.

[2] = test system: TCL1-driven CLL bearing BTK^C481S mutation; assay: TCL1-driven CLL bearing BTK C481S mutation in C57BL/6 mice, circulating leukemia burden; assay type: in vivo, mouse; conditions: once daily (QD) for 19 days
Excerpt: EIA-TCL1 CLL transgenic mice (Crogen Pharmaceuticals LLC) were crossed with BTK^C481S knock-in mice (AbbVie) to generate Eμ-TCL1 transgenic mice carrying the BTK^C481S mutation. The leukemic splenocytes from these BTK^C481S Eμ-TCL1 transgenic mice (Passage 1) were transplanted intravenously into C57BL/6 mice, leading to CLL development in the peripheral blood and spleen. When circulating CLL burden (CD5+CD19+ cells as described below) in the recipient mice reached over 90%, their splenocytes (Passage 2) containing high CLL burden were cryopreserved and used for CLL efficacy studies. […]
To determine the absolute/total leukocyte numbers, complete blood counts were determined for each mouse using the Genesis™ veterinary hematology analyzer (Oxford Science Inc.).
Cells isolated from murine peripheral blood mononuclear cells (PMBCs) were collected to determine antigen expression. […] Cells were gated on CD45+, and thereafter the percentage of cells that were CD5+CD19+ from that subset was calculated. […]
Whole blood was collected weekly post tumor implantation via submandibular cheek bleeding. Circulating leukemic burden was calculated by multiplying absolute/total leukocyte count with the percentage of the leukocytes have the immunophenotype CD19^+CD5^+. […]

Human BTK enzyme, wild-type, sequence (Q06187 whole entry): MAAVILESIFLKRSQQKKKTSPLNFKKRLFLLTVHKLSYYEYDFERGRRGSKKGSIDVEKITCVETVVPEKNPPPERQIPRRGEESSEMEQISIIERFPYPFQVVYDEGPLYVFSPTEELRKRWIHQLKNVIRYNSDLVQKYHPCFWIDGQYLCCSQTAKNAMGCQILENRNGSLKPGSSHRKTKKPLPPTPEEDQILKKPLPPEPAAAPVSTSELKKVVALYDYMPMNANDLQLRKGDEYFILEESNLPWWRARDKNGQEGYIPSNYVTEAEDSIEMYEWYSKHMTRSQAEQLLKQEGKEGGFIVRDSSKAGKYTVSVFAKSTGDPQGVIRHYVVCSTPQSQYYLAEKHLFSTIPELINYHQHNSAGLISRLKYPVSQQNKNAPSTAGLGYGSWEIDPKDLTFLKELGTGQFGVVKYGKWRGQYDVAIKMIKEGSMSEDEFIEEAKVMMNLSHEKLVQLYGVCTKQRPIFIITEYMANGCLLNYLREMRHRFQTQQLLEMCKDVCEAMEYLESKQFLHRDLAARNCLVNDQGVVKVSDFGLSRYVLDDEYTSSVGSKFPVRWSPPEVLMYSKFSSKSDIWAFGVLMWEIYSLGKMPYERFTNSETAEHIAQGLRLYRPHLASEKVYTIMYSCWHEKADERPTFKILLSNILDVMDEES

## Cc1cc(-c2cc(Nc3ccc(N4CCN(CCc5ccc(N6CCC(=O)NC6=O)cc5)C[C@@H]4C)cn3)ncn2)ccc1[C@@H](C)NC(=O)c1nc(C(C)(C)C)no1 [Example 1, 3-tert-butyl-N-[(1R)-1-{4-[6-({5-[(2S)-4-{2-[4-(2,4-dioxo-1,3-diazinan-1-yl)phenyl]ethyl}-2-methylpiperazin-1-yl]pyridin-2-yl}amino)pyrimidin-4-yl]-2-methylphenyl}ethyl]-1,2,4-oxadiazole-5-carboxamide]
[1]
  IC50: 97.7 pM
[2]; Dosage 1-4, dose-dependent manner, FIG. 1
  circulating leukemia burden (CD19+CD5+ CLL cells per μL): controlled circulating leukemia burden
[2]; at Dosage 3 and Dosage 4
  CLL burden control (no increase from the initial tumor burden): Complete CLL burden control

Reference: patent US20240109877A1, “PYRIMIDINES FOR DEGRADING BRUTON'S TYROSINE KINASE” (AbbVie Inc., priority 2022, published 2024)
